From article PMC5207065, “The Ribosome Restrains Molten Globule Formation in Stalled Nascent Flavodoxin” (The Journal of Biological Chemistry, 2016)

Experiments:
Experiment in all cases: FMN fluorescence quenching on binding to apoprotein, time trace
[1] = target: T1, F44YRNC (ribosome-nascent chain complex of F44Y flavodoxin) (Azotobacter vinelandii, UniProt P00324, F45Y/C70A); settings: buffer I (HEPES-KOH, magnesium acetate), pH 7.4, 25 °C; 50 nM RNC, 25 nM FMN; stalled on ribosome
T1 construct: gene nifF; fusion: triple StrepII tag, Smt3, flavodoxin, TEV site, linker, SecM; stalled on E. coli ribosome, made in vitro with PURExpress, Strep-Tactin purified; tags kept

[2] = target: T2, apo-F44YP (released F44Y flavodoxin construct) (Azotobacter vinelandii, UniProt P00324, F45Y/C70A); settings: 100 mM potassium PPi, 25 °C; refolded apo-F44YP 147 nM, 25 nM FMN
T2 construct: gene nifF; tags kept

[3] = target: T3, flavodoxin (C69A apoflavodoxin; F44Y apoflavodoxin) (Azotobacter vinelandii, UniProt P00324, C70A); settings: 10 or 100 mM potassium PPi, pH 6.0, 25 °C; 140 nM protein, 25 nM FMN
T3 construct: gene nifF; full-length isolated apoflavodoxin, 179 residues, expressed in E. coli TG2; FMN removed
T3 sequence (P00324 2-180 C70A): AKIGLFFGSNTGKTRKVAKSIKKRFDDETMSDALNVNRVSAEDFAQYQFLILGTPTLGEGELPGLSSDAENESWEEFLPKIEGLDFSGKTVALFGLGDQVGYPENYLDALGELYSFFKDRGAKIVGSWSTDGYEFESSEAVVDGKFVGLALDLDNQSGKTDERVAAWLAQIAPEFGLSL

T1 sequence (P00324 2-180 F45Y/C70A, one chain of several): as the sequence (P00324 2-180 C70A) above, with F44Y counted along it
T2 sequence (P00324 2-180 F45Y/C70A): as the sequence (P00324 2-180 C70A) above, with F44Y counted along it

Cc1cc2nc3c(=O)[nH]c(=O)nc-3n(C[C@H](O)[C@H](O)[C@H](O)COP(=O)(O)O)c2cc1C [FMN]
FMN fluorescence quenching on binding to apoprotein, time trace [1]: F44YRNC binds FMN rapidly at both salt concentrations
FMN fluorescence quenching on binding to apoprotein, time trace [2]: the FMN binding trace of this refolded apo-F44YP was measured in various buffers
FMN fluorescence quenching on binding to apoprotein, time trace [3]: time-dependent decrease of FMN fluorescence upon cofactor binding to C69A apoflavodoxin
